For 20 compounds, EC50 and IC50 results are on record in patent US20120225061A1, “TETRASUBSTITUTED CYCLOHEXYL COMPOUNDS AS KINASE INHIBITORS” (priority 2011, published 2012).

The structures appear in SMILES notation.

For assay [1], the system named is KMS11 (human myeloma cell line). The experiment in a line: Cell proliferation assay (CellTiter-Glo) in KMS11 cells. Format: cell-based. Conditions: KMS-11, 72 h, Table 5, 3 days, read-out: KMS11-luc EC50. Here is the method: KMS11 (human myeloma cell line), were cultured in IMDM supplemented with 10% FBS, sodium pyruvate and antibiotics. Cells were plated in the same medium at a density of 2000 cells per well into 96 well tissue culture plates, with outside wells vacant, on the day of assay.
Test compounds supplied in DMSO were diluted into DMSO at 500 times the desired final concentrations before dilution into culture media to 2 times final concentrations.
After 3 days plates were equilibrated to room temperature and equal volume of CellTiter-Glow Reagent (Promega) was added to the culture wells. The plates were agitated briefly and luminescent signal was measured with luminometer.
On the technique in general: In ATP-based viability assays light output follows the ATP content of the culture.

The target of the next assay is Pim1 kinase (Homo sapiens, UniProt P11309). Nature of the assay: Pim1 AlphaScreen assay (high ATP).
Another assay has as its target Pim2 kinase (Homo sapiens, UniProt Q9P1W9). Nature of the assay: Pim2 AlphaScreen assay (high ATP). On the technique in general: Bead proximity is the source of the signal in Alpha formats.
The target in another assay is Pim3 kinase (Homo sapiens, UniProt Q86V86). The experiment in a line: Pim3 AlphaScreen assay (high ATP).

Pim1 kinase, sequence (P11309 whole entry): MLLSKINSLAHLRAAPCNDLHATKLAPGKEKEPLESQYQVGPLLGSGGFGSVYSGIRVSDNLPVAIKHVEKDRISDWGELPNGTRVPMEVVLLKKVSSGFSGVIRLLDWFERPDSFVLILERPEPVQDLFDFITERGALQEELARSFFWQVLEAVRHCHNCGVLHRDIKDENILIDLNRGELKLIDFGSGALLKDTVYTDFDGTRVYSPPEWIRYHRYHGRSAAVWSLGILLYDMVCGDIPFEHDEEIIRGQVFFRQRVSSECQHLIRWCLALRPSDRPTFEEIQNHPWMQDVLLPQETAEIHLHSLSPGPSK
Pim2 kinase, sequence (Q9P1W9 whole entry): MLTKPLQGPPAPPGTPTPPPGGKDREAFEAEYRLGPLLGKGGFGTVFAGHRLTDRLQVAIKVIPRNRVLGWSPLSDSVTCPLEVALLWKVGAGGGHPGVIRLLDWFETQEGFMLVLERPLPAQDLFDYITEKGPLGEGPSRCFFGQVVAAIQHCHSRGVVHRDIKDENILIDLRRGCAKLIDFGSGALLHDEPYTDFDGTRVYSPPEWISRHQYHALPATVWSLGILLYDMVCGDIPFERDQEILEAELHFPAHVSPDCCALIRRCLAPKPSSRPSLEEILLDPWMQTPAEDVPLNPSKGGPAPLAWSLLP
Procedure for Pim1 kinase: (§1) The activity of Pim 1, Pim 2, & Pim 3 is measured using a homogeneous bead based system quantifying the amount of phosphorylated peptide substrate resulting from kinase-catalyzed phosphoryl transfer to a peptide substrate. Compounds to be tested are dissolved in 100% DMSO and directly distributed to a white 384-well plate at 0.25 μl per well. […] This is followed by the addition of 5 μl/well of Pim 1, Pim 2 or Pim 3 kinase in assay buffer (concentrations described below). Final assay concentrations (described below) are in 2.5% DMSO. The reactions are performed for ˜2 hours, then stopped by the addition of 10 μl of 0.75 μg/ml anti-phospho Ser/Thr antibody (Cell Signaling), 10 μg/ml Protein A AlphaScreen beads (Perkin Elmer), and 10 μg/ml streptavidin coated AlphaScreen beads in stop/detection buffer (50 mM EDTA, 95 mM Tris, pH=7.5, 0.01% Tween-20). The stopped reactions are incubated overnight in the dark. The phosphorylated peptide is detected via an oxygen anion initiated chemiluminescence/fluorescence cascade using the Envision plate reader (Perkin Elmer).
Procedure for Pim3 kinase: as §1

In general, EC50 refers to the midpoint of the concentration-response curve. The IC50 is the concentration that gives 50% inhibition. Lower therefore signals inhibition by little substance. Regarding `CC1C[C@@H](c2ccncc2NC(=O)c2ccc(F)c(-c3c(F)cc(Oc4ccncc4)cc3F)n2)C[C@@H](O)[C@]1(C)O` (stereo in doubt) [Example 116, 6-(2,6-difluoro-4-(pyridin-4-yloxy)phenyl)-N-(4-((1R,3R,4R,5S)-3,4-dihydroxy-4,5-dimethylcyclohexyl)pyridin-3-yl)-5-fluoropicolinamide], in assay [1], the EC50 was above 10000 nM. Moreover, the IC50 came to 2.65 nM against Pim1 kinase, 672 nM on Pim2 kinase and 189 nM on Pim3 kinase.

Regarding `C[C@H]1C[C@@H](c2ccncc2NC(=O)c2ccc(F)c(-c3c(F)cc(C4CCS(=O)(=O)CC4)cc3F)n2)C[C@@H](O)C1(C)O` (stereo in doubt) [Example 120, N-(4-((1R,3R,4S,5S)-3,4-dihydroxy-4,5-dimethylcyclohexyl)pyridin-3-yl)-6-(4-(1,1-dioxidotetrahydro-2H-thiopyran-4-yl)-2,6-difluorophenyl)-5-fluoropicolinamide], the EC50 in assay [1] came out at 723 nM. For the same compound, the IC50 at Pim1 kinase came to 0.26 nM; against Pim2 kinase, 48.7 nM; at Pim3 kinase, 31.5 nM.

Turning to `C[C@H]1C[C@@H](c2ccncc2NC(=O)c2ccc(F)c(-c3c(F)cc(CCO)cc3F)n2)C[C@@H](N)[C@]1(C)O` [Example 1, N-(4-((1R,3R,4R,5S)-3-amino-4-hydroxy-4,5-dimethylcyclohexyl)pyridin-3-yl)-6-(2,6-difluoro-4-(2-hydroxyethyl)phenyl)-5-fluoropicolinamide], in assay [1], the EC50 worked out at 20 nM. For the same compound, the IC50 is 0.07 nM on Pim1 kinase and 3.2 nM against Pim2 kinase.

Turning to `CCc1cc(F)c(-c2nc(C(=O)Nc3cnccc3[C@H]3C[C@@H](N)[C@](C)(O)[C@@H](C)C3)ccc2F)c(F)c1` [Example 2, N-(4-((1R,3R,4R,5S)-3-amino-4-hydroxy-4,5-dimethylcyclohexyl)pyridin-3-yl)-6-(4-ethyl-2,6-difluorophenyl)-5-fluoropicolinamide], the EC50 in assay [1] was 59 nM. Moreover, the IC50 is 0.05 nM on Pim1 kinase, 2.68 nM on Pim2 kinase and 1.33 nM at Pim3 kinase.

On to `C[C@H]1C[C@@H](c2ccncc2NC(=O)c2ccc(F)c(-c3c(F)ccc(OCCO)c3F)n2)C[C@@H](N)[C@]1(C)O` [Example 3, N-(4-((1R,3R,4R,5S)-3-amino-4-hydroxy-4,5-dimethylcyclohexyl)pyridin-3-yl)-6-(2,6-difluoro-3-(2-hydroxyethoxy)phenyl)-5-fluoropicolinamide], for which the EC50 in assay [1] was 126 nM. Moreover, the IC50 against Pim1 kinase was determined as 0.1 nM; on Pim2 kinase it was 10.6 nM; at Pim3 kinase, 1.94 nM.

As for `CC[C@]1(O)[C@H](N)C[C@H](c2ccncc2NC(=O)c2ccc(F)c(-c3c(F)cccc3F)n2)C[C@@H]1C` [Example 11, N-(4-((1R,3R,4R,5S)-3-amino-4-ethyl-4-hydroxy-5-methylcyclohexyl)pyridin-3-yl)-6-(2,6-difluorophenyl)-5-fluoropicolinamide], the IC50 against Pim1 kinase turned out to be 0.13 nM; at Pim2 kinase, 8.1 nM; on Pim3 kinase, 1.43 nM.

Turning to `CC[C@]1(O)[C@H](C)C[C@H](c2ccncc2NC(=O)c2ccc(F)c(-c3c(F)cccc3F)n2)C[C@@H]1N` [Example 12, N-(4-((1S,3S,4S,5R)-3-amino-4-ethyl-4-hydroxy-5-methylcyclohexyl)pyridin-3-yl)-6-(2,6-difluorophenyl)-5-fluoropicolinamide], the IC50 on Pim1 kinase stood at 26.2 nM; at Pim2 kinase, 1440 nM; at Pim3 kinase it was 303 nM.

In the case of `COc1cc(F)c(-c2nc(C(=O)Nc3cnccc3[C@H]3C[C@@H](N)[C@](C)(O)[C@@H](C)C3)ccc2F)c(F)c1` [Example 15, N-(4-((1R,3R,4R,5S)-3-amino-4-hydroxy-4,5-dimethylcyclohexyl)pyridin-3-yl)-6-(2,6-difluoro-4-methoxyphenyl)-5-fluoropicolinamide], the values for the IC50 against Pim1 kinase, against Pim2 kinase and against Pim3 kinase were 0.08 nM, 6 nM and 1.04 nM, respectively.

Turning to `COc1cc(F)c(-c2nc(C(=O)Nc3cnccc3[C@H]3C[C@@H](C)[C@](C)(O)[C@@H](N)C3)ccc2F)c(F)c1` [Example 16, N-(4-((1S,3S,4S,5R)-3-amino-4-hydroxy-4,5-dimethylcyclohexyl)pyridin-3-yl)-6-(2,6-difluoro-4-methoxyphenyl)-5-fluoropicolinamide], the IC50 worked out at 4.25 nM against Pim1 kinase, 780 nM against Pim2 kinase and 73 nM at Pim3 kinase.

As to `C[C@@H]1C[C@H](c2ccncc2NC(=O)c2nc(-c3c(F)cccc3F)ccc2N)C[C@H](O)[C@]1(O)CF` [Example 17, 3-amino-6-(2,6-difluorophenyl)-N-(4-((1S,3S,4S,5R)-4-(fluoromethyl)-3,4-dihydroxy-5-methylcyclohexyl)pyridin-3-yl) picolinamide], the IC50 against Pim1 kinase stood at 28.4 nM; at Pim2 kinase it was 4650 nM; on Pim3 kinase, 646 nM.

For the compound `C[C@H]1C[C@@H](c2ccncc2NC(=O)c2nc(-c3c(F)cccc3F)c(F)cc2N)C[C@@H](O)[C@@]1(O)CF` [Example 23, 3-amino-6-(2,6-difluorophenyl)-5-fluoro-N-(4-((1R,3R,4R,5S)-4-(fluoromethyl)-3,4-dihydroxy-5-methylcyclohexyl)pyridin-3-yl) picolinamide], the IC50 against Pim1 kinase stood at 0.58 nM; against Pim2 kinase, 28.6 nM; against Pim3 kinase, 10.1 nM.

Regarding `C[C@@H]1C[C@H](c2ccncc2NC(=O)c2nc(-c3c(F)cccc3F)c(F)cc2N)C[C@H](O)[C@]1(O)CF` [Example 24, 3-amino-6-(2,6-difluorophenyl)-5-fluoro-N-(4-((1S,3S,4S,5R)-4-(fluoromethyl)-3,4-dihydroxy-5-methylcyclohexyl)pyridin-3-yl) picolinamide], the results for the IC50 at Pim1 kinase, at Pim2 kinase and against Pim3 kinase were 22.1 nM, 4940 nM and 786 nM, respectively.

`C[C@H]1C[C@@H](c2ccncc2NC(=O)c2ccc(F)c(-c3c(F)cc(C4COC4)cc3F)n2)C[C@@H](N)[C@]1(C)O` [Example 63, N-(4-((1R,3R,4R,5S)-3-amino-4-hydroxy-4,5-dimethylcyclohexyl)pyridin-3-yl)-6-(2,6-difluoro-4-(oxetan-3-yl)phenyl)-5-fluoropicolinamide]: the EC50 in assay [1] was 84 nM. In addition, at Pim2 kinase, the IC50 was 5.73 nM.

With `C[C@H]1C[C@@H](c2ccncc2NC(=O)c2nc(-c3c(F)cccc3F)sc2N)C[C@@H](N)[C@]1(C)O` [Example 68, 5-amino-N-(4-((1R,3R,4R,5S)-3-amino-4-hydroxy-4,5-dimethylcyclohexyl)pyridin-3-yl)-2-(2,6-difluorophenyl)thiazole-4-carboxamide], the EC50 in assay [1] stood at 24 nM. Further, on Pim2 kinase, the IC50 is 3.02 nM.

For the compound `CCOCc1cc(F)c(-c2nc(C(=O)Nc3cnccc3[C@H]3C[C@@H](N)[C@](C)(O)[C@@H](C)C3)ccc2F)c(F)c1` [Example 72, N-(4-((1R,3R,4R,5S)-3-amino-4-hydroxy-4,5-dimethylcyclohexyl)pyridin-3-yl)-6-(4-(ethoxymethyl)-2,6-difluorophenyl)-5-fluoropicolinamide], the EC50 in assay [1] was 98 nM. Also, the IC50 against Pim2 kinase came to 4 nM.

For `C[C@H]1C[C@@H](c2ccncc2NC(=O)c2ccc(F)c(-c3c(F)cc(C4(O)CCOCC4)cc3F)n2)C[C@@H](O)[C@]1(C)O` [Example 110, 6-(2,6-difluoro-4-(4-hydroxytetrahydro-2H-pyran-4-yl)phenyl)-N-(4-((1R,3R,4R,5S)-3,4-dihydroxy-4,5-dimethylcyclohexyl)pyridin-3-yl)-5-fluoropicolinamide], in assay [1], the EC50 came to 322 nM.

Regarding `CC(C)c1cc(F)c(-c2nc(C(=O)Nc3cnccc3[C@H]3C[C@@H](N)[C@](C)(O)[C@@H](C)C3)ccc2F)c(F)c1` [Example 117, N-(4-((1R,3R,4R,5S)-3-amino-4-hydroxy-4,5-dimethylcyclohexyl)pyridin-3-yl)-6-(2,6-difluoro-4-isopropylphenyl)-5-fluoropicolinamide], the EC50 in assay [1] was found to be 256 nM. Moreover, the IC50 on Pim1 kinase is 0.02 nM; at Pim2 kinase, 1.39 nM.

Turning to `C[C@H]1C[C@@H](c2ccncc2NC(=O)c2ccc(F)c(-c3c(F)cc(C4CCS(=O)(=O)CC4)cc3F)n2)C[C@@H](N)[C@]1(C)O` [Example 119, N-(4-((1R,3R,4R,5S)-3-amino-4-hydroxy-4,5-dimethylcyclohexyl)pyridin-3-yl)-6-(4-(1,1-dioxidotetrahydro-2H-thiopyran-4-yl)-2,6-difluorophenyl)-5-fluoropicolinamide], the EC50 in assay [1] turned out to be 578 nM. Further, the IC50 at Pim2 kinase was found to be 1.53 nM.

`C[C@H]1C[C@@H](c2ccncc2NC(=O)c2nc(-c3cccc(OC(F)F)n3)ccc2N)C[C@@H](O)[C@]1(C)O` [Example 123, 5-amino-6′-(difluoromethoxy)-N-(4-((1R,3R,4R,5S)-3,4-dihydroxy-4,5-dimethylcyclohexyl)pyridin-3-yl)-2,2′-bipyridine-6-carboxamide]: the IC50 is 35.2 nM at Pim1 kinase, 20200 nM against Pim2 kinase and 454 nM at Pim3 kinase.

For the compound `C[C@H]1C[C@@H](c2ccncc2NC(=O)c2nc(-c3cccc(OCC(F)(F)F)n3)ccc2N)C[C@@H](O)[C@]1(C)O` [Example 124, 5-amino-N-(4-((1R,3R,4R,5S)-3,4-dihydroxy-4,5-dimethylcyclohexyl)pyridin-3-yl)-6′-(2,2,2-trifluoroethoxy)-2,2′-bipyridine-6-carboxamide], the IC50 was 21.7 nM against Pim1 kinase, above 25000 nM against Pim2 kinase and 736 nM on Pim3 kinase.
